Structures can show the parent of a compound that is named as a salt.

One experiment relates to HCT-116 cell line. The experiment in a line: Inhibition of cell growth, MTT tetrazolium salt assay. It counts as cell-based. Particulars: Homo sapiens, HCT-116, 120 h, MTT, three to five days; for IC90: 90% inhibition of growth. Put shortly:
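HCT-116 cells in McCoy's 5A were dosed 4 h after plating with compounds in 0.5% DMSO and grown 3–5 days at 37 °C. Then 0.2 mg/mL MTT was added for 4 h and formazan absorbance read at 540 nm. IC50/IC90 came from semi-log plots against DMSO-only controls.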

The target of experiment [1] is T1, human CDK1 (cdc2)/cyclin B (Homo sapiens, UniProt P06493).
T1 construct: purchased New England Biolabs (Beverly, Mass.)
T1 sequence (P06493 whole entry): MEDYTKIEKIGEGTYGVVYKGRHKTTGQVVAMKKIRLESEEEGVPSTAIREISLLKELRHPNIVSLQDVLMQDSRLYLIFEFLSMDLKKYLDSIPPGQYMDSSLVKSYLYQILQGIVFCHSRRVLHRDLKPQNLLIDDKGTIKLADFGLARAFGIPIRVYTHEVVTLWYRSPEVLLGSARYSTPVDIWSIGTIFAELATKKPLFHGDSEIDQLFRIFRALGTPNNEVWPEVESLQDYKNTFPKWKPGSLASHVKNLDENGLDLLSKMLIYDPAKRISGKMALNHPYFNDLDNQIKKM
T1 sequence (P14635 whole entry partner): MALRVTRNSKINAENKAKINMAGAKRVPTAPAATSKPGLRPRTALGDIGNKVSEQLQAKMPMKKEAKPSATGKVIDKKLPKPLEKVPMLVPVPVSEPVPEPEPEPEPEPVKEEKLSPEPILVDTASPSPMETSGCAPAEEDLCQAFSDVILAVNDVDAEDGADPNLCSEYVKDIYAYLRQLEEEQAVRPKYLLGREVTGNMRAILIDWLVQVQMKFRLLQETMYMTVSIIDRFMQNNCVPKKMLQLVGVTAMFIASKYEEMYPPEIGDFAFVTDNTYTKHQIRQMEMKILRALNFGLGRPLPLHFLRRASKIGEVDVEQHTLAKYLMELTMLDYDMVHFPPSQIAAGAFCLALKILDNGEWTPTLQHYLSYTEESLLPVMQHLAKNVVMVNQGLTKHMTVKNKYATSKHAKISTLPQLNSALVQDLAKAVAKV
Kind of experiment: Inhibition of CDK1 (cdc2)/cyclin B histone H1 kinase activity. The format is biochemical. Particulars: histone H1 substrate. As for the experimental part:
Cyclin-dependent kinase activity was measured by quantifying the enzyme-catalyzed, time-dependent incorporation of radioactive phosphate from [^32P]ATP or [^33P]ATP into a protein substrate. Unless noted otherwise, assays were performed in 96-well plates in a total volume of 50 μL, in the presence of 10 mM HEPES (N-[2-hydroxyethyl]piperazine-N′-[2-ethanesulfonic acid]) (pH 7.4), 10 mM MgCl2, 25 μM adenosine triphosphate (ATP), 1 mg/mL ovalbumin, 5 μg/mL leupeptin, 1 mM dithiothreitol, 10 mM β-glycerophosphate, 0.1 mM sodium vanadate, 1 mM sodium fluoride, 2.5 mM ethylene glycol-bis(β-aminoethyl ether)-N,N,N′N′-tetraacetic acid (EGTA), 2% (v/v) dimethylsulfoxide, and 0.03-0.4 μCi [^32/33P]ATP per reaction. Reactions were initiated with enzyme, incubated at 30° C., and terminated after 20 minutes by the addition of ethylenediaminetetraacetic acid (EDTA) to 250 mM. The phosphorylated substrate was then captured on a nitrocellulose or phosphocellulose membrane using a 96-well filtration manifold, and unincorporated radioactivity was removed by repeated washing with 0.85% phosphoric acid. Radioactivity was quantified by exposing the dried membranes to a phosphorimager.
Compounds from combinatorial libraries were screened from 96-well plates for % inhibition of CDK activity at 30 nM theoretical compound concentration. Inhibition was measured relative to control wells that contained all reaction components including 2% (v/v) DMSO but no compound, after subtraction of background radioactivity measured in the absence of enzyme. Apparent Ki values of discrete compounds were measured by assaying enzyme activity in the presence of different inhibitor compound concentrations and subtracting the background radioactivity measured in the absence of enzyme. The kinetic parameters (kcat, Km for ATP) were measured for each enzyme under the usual assay conditions by determining the dependence of initial rates on ATP concentration. Inhibition data were fit to an equation for competitive inhibition using Kaleidagraph (Synergy Software), or were fit to an equation for competitive tight-binding inhibition using the software KineTic (BioKin, Ltd.).
The complex of human CDK1 (cdc2) and cyclin B was purchased from New England Biolabs (Beverly, Mass.). Alternatively, a CDK1/glutathione-S-transferase-cyclin B1 complex was purified using glutathione affinity chromatography from insect cells that had been co-infected with the corresponding baculovirus expression vectors. The assay was executed as described above at 30° C. using 2.5 units of cdc2/cyclin B, 10 μg Histone H1 protein, and 0.1-0.3 μCi [^32/33P]ATP per assay. Phosphorylated histone substrate was captured by microfiltration on a phosphocellulose P81 membrane and quantified using a phosphorimager as described above. Ki values were measured using the described curve-fitting programs.

Consider `CN1CCC[C@H]1CNC(=O)c1ccc(Nc2nc(N)c(C(=O)c3c(F)cccc3F)s2)cc1` [Example A31, 4-[4-Amino-5-(2,6-difluoro-benzoyl)-thiazol-2-ylamino]-N-(1-methyl-pyrrolidin-2S-yl-methyl)-benzamide Dihydrochloride], for which, in the experiment on HCT-116 cell line, the IC50 was 30 nM and the IC90 was 70 nM. Also, in experiment [1], the Ki is 82 nM.
For the molecule `Nc1nc(Nc2ccc(C(=O)Nc3ccc(N4CCOCC4)cc3)cc2)sc1C(=O)c1c(F)cccc1F` [Example A21], the IC50 in the experiment on HCT-116 cell line was found to be 100 nM. Besides, in experiment [1], the Ki was found to be 120 nM.
As to `CC(CN(C)C)NC(=O)c1ccc(Nc2nc(N)c(C(=O)c3c(F)cccc3F)s2)cc1` (stereo not drawn) [Example A20, 4-[4-Amino-5-(2,6-difluoro-benzoyl)-thiazol-2-ylamino]-N-(2-dimethylamino-1RS-methyl-ethyl)-benzamide Hydrochloride Salt], in the experiment on HCT-116 cell line, the IC50 stood at 76 nM and the IC90 stood at 180 nM. Moreover, in experiment [1], the Ki is 150 nM.
Turning to `Nc1nc(Nc2ccc(C(=O)NCCc3ccc(O)cc3)cc2)sc1C(=O)c1c(F)cccc1F` [Example A14, 4-[4-Amino-5-(2,6-difluoro-benzoyl)-thiazol-2-ylamino]-N-[2-(4-hydroxy-phenyl)-ethyl]-benzamide], in the experiment with HCT-116 cell line, the IC50 was 42 nM. The Ki in experiment [1] was found to be 42 nM.
`Nc1nc(Nc2ccc(C(=O)NCCN3CCCCC3)cc2)sc1C(=O)c1c(F)cccc1F` [Example A15, 4-[4-Amino-5-(2,6-difluoro-benzoyl)-thiazol-2-ylamino]-N-(2-piperidin-1-yl-ethyl)-benzamide]: in the experiment with HCT-116 cell line, the IC50 was 90 nM. The Ki in experiment [1] stood at 68 nM.

In general, IC50 refers to the concentration that gives 50% inhibition. The IC90 is the point of the concentration-response curve where the effect stands at 90%. The Ki is the dissociation constant of the complex between target and ligand, obtained from inhibition or displacement.

(Values after US6720346B2, “Thiazole benzamide derivatives and pharmaceutical compositions for inhibiting cell proliferation” (Agouron Pharmaceuticals, Inc., priority 2001, dated 2004).)
